From patent US9770026B2, “Substituted pyrimidine compound and uses thereof” (Shenyang Sinochem Agrochemicals R&D Co., Ltd., priority 2012, dated 2017)

Tests used:
[1] = test system: armyworm; assay: bioactivity test against armyworm, airbrush spray; type: in vivo; conditions: for control (test results against armyworm): mortality after 72 h
[2] = test system: carmine spider mite; assay: bioactivity test against carmine spider mite, airbrush spray; type: in vivo; conditions: for pest or weed control at 100 µg/mL: 100 mg/L; for pest or weed control at 600 µg/mL: 600 mg/L; for control against carmine spider mite: mortality after 72 hrs
Summary of the method: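 Broadbean seedlings infested with adult mites were sprayed with compound (acetone/methanol stock diluted in 0.1% Tween 80 water) by airbrush at 0.7 kg/cm^2, 0.5 ml. Three replicates were run. Mortality was scored after 72 hrs.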

[3] = test system: Green peach aphids (Myzus Persicae Sulzer); assay: bioactivity test against green peach aphid, airbrush foliar spray; type: in vivo; conditions: for pest or weed control at 10 µg/mL / pest or weed control at 100 µg/mL / pest or weed control at 600 µg/mL: Myzus persicae, foliar, 48 h, read-out: Insecticidal activity against peach aphid (%); for pest or weed control at 10 µg/mL / pest or weed control at 100 µg/mL / pest or weed control at 600 µg/mL / Insecticidal activity against peach aphid (%): contrastive test; for control (test results against green peach aphid): death rate after 48 hrs
Summary of the method: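 Death rate was scored at 48 hrs, held at 25±1 C and 60±5% RH, following airbrush foliar spray (0.5 mL, 10 psi) onto cabbage leaf discs bearing about 15-30 aphids. Test solutions: compound dissolved in 1:1 acetone:methanol, brought to concentration with 0.1% tween 80 water.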

[4] = test system: corn rust; assay: protectant activity in vivo against corn rust; conditions: Zea mays, 168 h, protectant activity; for pest or weed control at 6.25 µg/mL: read-out: control effect against corn rust (%), 6.25 mg/L; for pest or weed control at 25 µg/mL: read-out: control effect against corn rust (%), 25 mg/L; for pest or weed control at 100 µg/mL: read-out: control effect against corn rust (%), 100 mg/L; for pest or weed control at 400 µg/mL: read-out: control effect against corn rust (%), 400 mg/L
[5] = test system: Diamond back moth; assay: insecticidal activity against diamond back moth, airbrush spray; type: in vivo; conditions: for pest or weed control at 10 µg/mL / pest or weed control at 100 µg/mL / pest or weed control at 600 µg/mL: 72 h; for pest or weed control at 10 µg/mL: 10 mg/L; for pest or weed control at 100 µg/mL: 100 mg/L; for pest or weed control at 600 µg/mL: 600 mg/L
Summary of the method: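 Airbrush leaf-disc spray test: both faces of 2 cm cabbage discs received 0.5 ml of test solution at 0.7 kg/cm^2. Solutions were made in acetone:methanol (1:1) and brought to concentration with 0.1% Tween 80 in water. Ten second-instar larvae per disc, triplicates, were held at 25° C and 60˜70% R.H., with mortality recorded at 72 hrs.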

[6] = test system: wheat powdery mildew; assay: protectant activity in vivo against wheat powdery mildew; conditions: for pest or weed control at 6.25 µg/mL / pest or weed control at 25 µg/mL / pest or weed control at 100 µg/mL / pest or weed control at 400 µg/mL: Triticum aestivum, 168 h, protectant activity; for pest or weed control at 6.25 µg/mL: read-out: control effect against wheat powdery mildew (%), 6.25 mg/L; for pest or weed control at 25 µg/mL: read-out: control effect against wheat powdery mildew (%), 25 mg/L; for pest or weed control at 100 µg/mL: read-out: control effect against wheat powdery mildew (%), 100 mg/L; for pest or weed control at 400 µg/mL: read-out: control effect against wheat powdery mildew (%), 400 mg/L
[7] = test system: cucumber downy mildew; assay: protectant activity in vivo against cucumber downy mildew; conditions: for control effect against cucumber downy mildew (%): protectant activity
[8] = 72 h, 600 mg/L, read-out: Insecticidal activity against armyworm (%)
[9] = Tetranychus cinnabarinus, 72 h, contrastive test, read-out: Insecticidal activity against carmine spider mite (% )

Question: Which results are given for `FC(F)(F)c1ccc(Oc2ccc(CCNc3ncnc4ccccc34)cc2)nc1` [CK12, reference compound]?
Answer: pest or weed control at 10 µg/mL ([1]; 72 h, 10 mg/L, read-out: Insecticidal activity against armyworm (%)): 0%; pest or weed control at 100 µg/mL ([1]; 72 h, 100 mg/L, read-out: Insecticidal activity against armyworm (%)): 20%; pest or weed control at 600 µg/mL [1, 8]: 86%; pest or weed control at 100 µg/mL [2, 9]: 41%; pest or weed control at 600 µg/mL [2, 9]: 100%; pest or weed control at 10 µg/mL ([3]; 10 mg/L): 73%; pest or weed control at 100 µg/mL ([3]; 100 mg/L): 100%; pest or weed control at 600 µg/mL ([3]; 600 mg/L): 100%; pest or weed control at 6.25 µg/mL [4]: 75%; pest or weed control at 25 µg/mL [4]: 85%; pest or weed control at 100 µg/mL [4]: 100%; pest or weed control at 400 µg/mL [4]: 100%; pest or weed control at 10 µg/mL [5]: 0%; pest or weed control at 100 µg/mL [5]: 35%; pest or weed control at 600 µg/mL [5]: 100%; pest or weed control at 6.25 µg/mL [6]: 0%; pest or weed control at 25 µg/mL [6]: 0%; pest or weed control at 100 µg/mL [6]: 30%; pest or weed control at 400 µg/mL [6]: 80%

Question: With `Cc1ncnc(NC(C)c2ccc(Oc3ccc(C(F)(F)F)cc3Cl)cc2)c1Cl` (stereo not drawn) [CK30, reference compound] as the compound, how does the pest or weed control at 600 µg/mL [1, 8] read?
Answer: The pest or weed control at 600 µg/mL was 57%.

Question: And the pest or weed control at 10 µg/mL ([2]; Tetranychus cinnabarinus, 72 h, 10 mg/L, contrastive test, read-out: Insecticidal activity against carmine spider mite (% ))?
Answer: Its pest or weed control at 10 µg/mL is 28%.

Question: And the pest or weed control at 100 µg/mL [2, 9]?
Answer: The pest or weed control at 100 µg/mL was 100%.

Question: And the pest or weed control at 600 µg/mL [2, 9]?
Answer: Its pest or weed control at 600 µg/mL is 100%.

Question: And the pest or weed control at 10 µg/mL ([3]; 10 mg/L)?
Answer: The pest or weed control at 10 µg/mL was 0%.

Question: And the pest or weed control at 100 µg/mL ([3]; 100 mg/L)?
Answer: Its pest or weed control at 100 µg/mL is 50%.

Question: What about the pest or weed control at 600 µg/mL ([3]; 600 mg/L) of the same compound?
Answer: Its pest or weed control at 600 µg/mL is 93%.

Question: What about the pest or weed control at 6.25 µg/mL [4] of the same compound?
Answer: Its pest or weed control at 6.25 µg/mL is 0%.

Question: And the pest or weed control at 25 µg/mL [4]?
Answer: The pest or weed control at 25 µg/mL was 0%.

Question: What about the pest or weed control at 100 µg/mL [4] of the same compound?
Answer: Its pest or weed control at 100 µg/mL is 0%.

Question: And the pest or weed control at 400 µg/mL [4]?
Answer: Its pest or weed control at 400 µg/mL is 0%.

Question: What about the pest or weed control at 600 µg/mL [5] of the same compound?
Answer: Its pest or weed control at 600 µg/mL is 0%.

Question: What about the pest or weed control at 6.25 µg/mL [6] of the same compound?
Answer: The pest or weed control at 6.25 µg/mL was 0%.

Question: What about the pest or weed control at 25 µg/mL [6] of the same compound?
Answer: The pest or weed control at 25 µg/mL was 20%.

Question: And the pest or weed control at 100 µg/mL [6]?
Answer: The pest or weed control at 100 µg/mL was 80%.

Question: What about the pest or weed control at 400 µg/mL [6] of the same compound?
Answer: Its pest or weed control at 400 µg/mL is 100%.

Question: `CCc1ncnc(NCc2ccc(Oc3nc(Cl)c(Cl)cc3Cl)cc2)c1Cl` [CK36, reference compound] was tested. Which pest or weed control at 600 µg/mL [1, 8] did it give?
Answer: Its pest or weed control at 600 µg/mL is 0%.

Question: What about the pest or weed control at 600 µg/mL [2, 9] of the same compound?
Answer: Its pest or weed control at 600 µg/mL is 0%.

Question: What about the pest or weed control at 10 µg/mL ([3]; 10 mg/L) of the same compound?
Answer: The pest or weed control at 10 µg/mL was 0%.

Question: What about the pest or weed control at 100 µg/mL ([3]; 100 mg/L) of the same compound?
Answer: Its pest or weed control at 100 µg/mL is 14%.

Question: What about the pest or weed control at 600 µg/mL ([3]; 600 mg/L) of the same compound?
Answer: The pest or weed control at 600 µg/mL was 90%.

Question: What about the pest or weed control at 6.25 µg/mL [4] of the same compound?
Answer: The pest or weed control at 6.25 µg/mL was 0%.

Question: And the pest or weed control at 25 µg/mL [4]?
Answer: The pest or weed control at 25 µg/mL was 40%.

Question: What about the pest or weed control at 100 µg/mL [4] of the same compound?
Answer: Its pest or weed control at 100 µg/mL is 60%.

Question: What about the pest or weed control at 400 µg/mL [4] of the same compound?
Answer: The pest or weed control at 400 µg/mL was 100%.

Question: What about the pest or weed control at 10 µg/mL [5] of the same compound?
Answer: The pest or weed control at 10 µg/mL was 0%.

Question: What about the pest or weed control at 100 µg/mL [5] of the same compound?
Answer: The pest or weed control at 100 µg/mL was 0%.

Question: What about the pest or weed control at 600 µg/mL [5] of the same compound?
Answer: The pest or weed control at 600 µg/mL was 20%.

Question: And the pest or weed control at 6.25 µg/mL [6]?
Answer: The pest or weed control at 6.25 µg/mL was 0%.

Question: And the pest or weed control at 25 µg/mL [6]?
Answer: The pest or weed control at 25 µg/mL was 60%.

Question: And the pest or weed control at 100 µg/mL [6]?
Answer: The pest or weed control at 100 µg/mL was 80%.

Question: And the pest or weed control at 400 µg/mL [6]?
Answer: Its pest or weed control at 400 µg/mL is 100%.

Question: For `CCc1ncnc(NCCc2ccc(Oc3ccc(Cl)cc3)nc2)c1Cl` [III-187], which “Insecticidal activity against armyworm (%)” value ([1]; 10 mg/L) is on record?
Answer: The value was 95%.

Question: And the “Insecticidal activity against armyworm (%)” value ([1]; 100 mg/L)?
Answer: The value was 100%.

Question: And the “Insecticidal activity against armyworm (%)” value ([1]; 600 mg/L)?
Answer: The value was 100%.

Question: And the “control (test results against armyworm)” value ([1]; 100 ppm)?
Answer: Its value is 100%.

Question: What about the “control (test results against armyworm)” value ([1]; 600 ppm) of the same compound?
Answer: The value was 100%.

Question: What about the “control against carmine spider mite” value ([2]; 100 ppm) of the same compound?
Answer: The value was 100%.

Question: What about the “control against carmine spider mite” value ([2]; 600 ppm) of the same compound?
Answer: Its value is 100%.

Question: What about the “control effect against cucumber downy mildew (%)” value (“control effect … (%)” below) ([7]; 6.25 mg/L) of the same compound?
Answer: Its value is 100%.

Question: What about the “control effect … (%)” value ([7]; 12.5 mg/L) of the same compound?
Answer: The value was 100%.

Question: And the “control effect … (%)” value ([7]; 25 mg/L)?
Answer: Its value is 100%.

Question: And the “control effect … (%)” value ([7]; 50 mg/L)?
Answer: Its value is 100%.

Question: And the “control effect … (%)” value ([7]; 100 mg/L)?
Answer: Its value is 100%.

Question: And the “control effect … (%)” value ([7]; 400 mg/L)?
Answer: The value was 100%.

Question: What about the “protectant activity against cucumber downy mildew in vivo” value ([7]; 6.25 ppm) of the same compound?
Answer: The value was 100%.

Question: What about the “protectant activity against cucumber downy mildew in vivo” value ([7]; 12.5 ppm) of the same compound?
Answer: The value was 100%.

Question: What about the “protectant activity against cucumber downy mildew in vivo” value ([7]; 25 ppm) of the same compound?
Answer: Its value is 100%.

Question: And the “protectant activity against cucumber downy mildew in vivo” value ([7]; 50 ppm)?
Answer: Its value is 100%.

Question: What about the “protectant activity against cucumber downy mildew in vivo” value ([7]; 100 ppm) of the same compound?
Answer: Its value is 100%.

Question: What about the “protectant activity against cucumber downy mildew in vivo” value ([7]; 400 ppm) of the same compound?
Answer: The value was 100%.

Question: And the “Insecticidal activity against peach aphid (%)” value ([3]; 10 mg/L)?
Answer: Its value is 100%.

Question: And the “Insecticidal activity against peach aphid (%)” value ([3]; 100 mg/L)?
Answer: The value was 100%.

Question: And the “Insecticidal activity against peach aphid (%)” value ([3]; 600 mg/L)?
Answer: The value was 100%.

Question: What about the “control (test results against green peach aphid)” value ([3]; 10 ppm) of the same compound?
Answer: The value was 100%.

Question: And the “control (test results against green peach aphid)” value ([3]; 100 ppm)?
Answer: The value was 100%.

Question: What about the “control (test results against green peach aphid)” value ([3]; 600 ppm) of the same compound?
Answer: The value was 100%.

Question: And the “control (test results against diamond back moth)” value ([5]; 600 ppm, mortality after 72 hrs)?
Answer: The value was 100%.

Question: And the “protectant activity against wheat powdery mildew in vivo” value ([6]; 400 ppm)?
Answer: The value was 100%.
